Test: not given
Conditions: stated with the literature report; cited from earlier work

| SMILES | log D |
| --- | --- |
| C[C@]12CC[C@@H]3c4ccc(O)cc4CC[C@H]3[C@@H]1CC[C@@H]2O [estradiol] | 3.94 |
| C[C@]12CC[C@@H]3c4ccc(O)cc4CC[C@H]3[C@@H]1CCC2=O [estrone] | 3.46 |

Test: Rejection of micropollutants by low pressure reverse osmosis (LPRO), diluted DS as feed
Conditions: permeate of LPRO at 15 bar

| concentration, Permeate LPRO [µg/L] | SMILES |
| --- | --- |
| 0.02 | NC(=O)N1c2ccccc2C=Cc2ccccc21 [Carbamazepine] |
| 0.31 | CC(=O)Nc1ccc(O)cc1 [Acetaminophen] |
| <0.01 | CC(C(=O)O)c1cccc(Oc2ccccc2)c1 (stereo not drawn) [Fenoprofen] |
| <0.01 | Cc1ccc(C)c(OCCCC(C)(C)C(=O)O)c1 [Gemfibrozil] |
| 0.08 | Cc1ncc([N+](=O)[O-])n1CCO [Metronidazole] |

More lines, now with the values behind:

| SMILES | concentration, Permeate LPRO [µg/L] |
| --- | --- |
| CC(C)(c1ccc(O)cc1)c1ccc(O)cc1 [Bisphenol A] | 0.058 |
| C1COCCO1 [1,4-dioxane] | <0.5 |
| C#C[C@]1(O)CC[C@H]2[C@@H]3CCc4cc(O)ccc4[C@H]3CC[C@@]21C [17α-ethynilestradiol] | <0.001 |
| Cn1c(=O)c2c(ncn2C)n(C)c1=O [Caffeine] | 0.03 |
| CC(C(=O)O)c1cccc(C(=O)c2ccccc2)c1 (stereo not drawn) [Ketoprofen] | <0.01 |

Source: US20130001162A1, “Apparatus, System, and Method for Forward Osmosis in Water Reuse” (priority 2011, published 2013)
